From EP2626073A1, “Compound for use in the prevention and/or treatment of a neurogenerative disease or a disease involving an activation of phosphodiesterase-4 (PDE4)” (Harmonic Pharma, priority 2012, dated 2013) come the findings set out here.

The target of one experiment is PDE4. Description: PDE4 isolated enzyme two-step radioenzymatic PDE assay. Type of experiment: biochemical. The note with it: 1 µM cAMP substrate, 30°C, 30 min; read-out: inhibition concentration value (IC50).
The subject of the next experiment is Male C57BL/6 mice. Put plainly: Y-maze test of spatial working memory after icv Aβ oligomers. The experiment is classed as in vivo. The method, then:
Animals: All animal experiments were carried out according to the National Institute of Health (NIH) guidelines for the care and use of laboratory animals, and approved by the French Ministry for Research and Technology. Animals were housed at a standard temperature (22±1°C) and in a light-controlled environment (lights on from 7 am to 8 pm) with ad libitum access to food and water. Upon arrival, Male C57BL/6 mice (C57BL/6J Rj, ref SC-CJ-12w-M, Janvier, France) were group housed. From 1 week before the experiment started and until the end of the experiment, mice were individually housed. Animals were monitored twice-a-day by laboratory personnel (8 am and 4 pm). […]
Surgery and intracerebroventricular (icv) infusion of low-n Aβ oligomers: Immediate spatial working memory performance was assessed by recording spontaneous alternation behavior in a Y-maze system, as previously described (Youssef et al., Neurobiology of Aging, 29 (2008) 1319-1333; Garcia et al., The Journal of Neuroscience, June 2,2010, 30(22) 7516-7527). […]
Investigation of the spatial working memory - Y maze test: Immediate spatial working memory performance was assessed by recording spontaneous alternation behavior in a Y-maze system, as previously described (Youssef et al., 2008; Garcia et al., 2010, see references above). […]

For experiment [1], the system named is cAMP level in HEK293 cells. Put plainly: Measurement of cAMP level by ELISA. The experiment is classed as cell-based. How it is done: Measurement of cAMP level: HEK293 cells were cultured in DMEM medium containing 10 % FCS. Cells were plated in 12-well plates at a density of 400.000 cells per well and cultured for 24h at 37°C in a humidified 6% CO2 atmosphere. Cells were then incubated for 1 h with increasing concentrations of tivozanib and then treated with vehicle or 25 µM forskolin for 15 minutes. Following washing steps and cell lysis, cellular level of cAMP level was monitored using an ELISA assay (Cyclic AMP XP assay kit - Cell signaling). Data are from 2 experiments performed in duplicate. Data are represented as fold increase of cAMP as compared to experiment using forskolin only, designed as 1.0 (figure 7).
Effects of tivozanib on cAMP level in HEK293 cells: In order to evaluate the potential effect of tivozanib on PDE4 activity in living cells, the HEK293 cell line was used. These cells are widely used for identification and validation of PDE4 modulators in mild as well as high throughput screening assays. Indeed, the control of cAMP level and hydrolysis in HEK293 cells are predominantly supported by PDE4.
On the technique in general: cAMP levels reflect the balance of adenylyl cyclase and phosphodiesterase activity.

The next experiment deals with Rat cortical neurons. Put plainly: Aβ oligomer-induced neuronal death, MTT assay. The experiment is classed as cell-based, Wistar rat. To be noted: 24 h. The method, then:
Cell culture: Cortical neurons from embryonic day 16-17 Wistar rat fetuses were prepared as follows. Dissociated cortical cells were plated at 4.5-5.0 10^4 cells/cm^2 in plastic dishes precoated with 1.5 mg/mL polyornithine (Sigma). Cells were cultured in a chemically defined Dulbecco's modified eagle's/F12 medium free of serum (Gibco) and supplemented with hormones, proteins and salts. Cultures were kept at 35°C in a humidified 5% CO2 atmosphere, and at 6-7 DIV, cortical population was determined to be at least 97% neuronal by immunostaining.
Preparation of low-n β-amyloid (Aβ) oligomers: The peptide used is Aβ1-42 from Bachem (ref H1368, batch number: 1025459). The oligomeric preparation contains a mixture of stable dimers, trimers and tetramers of Aβ1-42 peptide, as well as monomeric forms of the peptide.
Preparation of tivozanib solution: Tivozanib was dissolved in DMSO. A stock solution (10 mM DMSO) was prepared, and aliquots were stored at -20 °C before use.
Treatment and measurement of cell viability: All experiments were done in 48 well plates. […] Following 24h of incubation, neuronal viability was monitored using the MTT assay (Garcia et al., The Journal of Neuroscience, June 2,2010, 30(22), 7516-7527; Desbene et al., Neurobiology of Aging, 33 (2012) 1123.e17-1123.e-29). Data were obtained from one experiment with 4 determinations each and expressed as means + SD.

With `COc1cc2nccc(Oc3ccc(NC(=O)Nc4cc(C)on4)c(Cl)c3)c2cc1OC` [tivozanib, N-{2-chloro-4-[(6,7-dimethoxy-4-quinolyl)oxy]-phenyl}-N'-(5-methyl-3-isoxazolyl)urea], at PDE4, the IC50 was 4.8 µM. Moreover, the “behavior and spontaneous alternation performance” value in the experiment with Male C57BL/6 mice (group C: 30 mg/kg/day per os, vehicle icv, test day +4) is on record as “displayed a normal behavior”. For the same compound, the “spatial working memory (spontaneous alternation)” value in the experiment with Male C57BL/6 mice (group D: 30 mg/kg/day per os day -2 to +4, Aβ oligomers 50 pmol icv day 0, test day +4) is recorded as “significantly improved spatial working memory”. The cAMP level entry in experiment [1] (absence of forskolin, increasing concentrations up to 50 µM, 1 h) was “did not result in an increase of cAMP level”; in experiment [1] (presence of 25 µM forskolin for 15 minutes, increasing concentrations, 1 h pre-incubation) it was “dose-response accumulation of cAMP”. Further, the “Aβ oligomer-induced cell death (cell viability, MTT)” value with Rat cortical neurons (tivozanib up to 10 µM added simultaneously with 1 µM Aβ1-42 oligomers) is “protected cells towards Aβ oligomer-induced cell death”.

Consider Aβ1-42 oligomers, for which, in the experiment on Rat cortical neurons (1 µM Aβ1-42 oligomers alone, figure 6B CTRL), the “decrease of cell viability” value was around 40%.
